Measurements taken from US5562922A, “Drug incorporating and release polymeric coating for bioprosthesis” (Cedars-Sinai Medical Center, priority 1995, dated 1996).
“Also recorded” adds a separate entry of the source.

Columns and labels:
[1] = Etretinate delivery to vessel wall from coated stent (similar model); settings: rabbit
[2] = Uptake by polymer, elution from polymer and tissue retention compared with forskolin; settings: compared to forskolin
[3] = Water solubility (in words); assay type: physicochemical
[4] = In vitro drug release from polyurethane-coated stents, coils or films; settings: for initial release rate / release rate: release from polyurethane, Table 1A; for Total: total content
Method: Drug incorporation into polyurethane-coated articles
Nitinol stents or stainless steel coils with surface area similar to nitinol stents were coated with Tecoflex 85A™ polyurethane to a thickness of about 50 microns in accordance with the manufacture's instructions for coating metal surfaces.
The drug loading procedure is carried out as follows: The desired compound is dissolved in a solution containing 3 parts ethanol and 1 part tetrahydrofuran (100 mg/ml for rhodamine B and 50 mg/ml for fluorescein dilaurate and forskolin).
When a hydrophilic compound such as hirulog was loaded in the polyurethane,the polyurethane was first loaded with sphingosine or any charged lipophilic molecule as described above. With this modification, the polyurethane will swell in organic solutions containing up to 10% water. The desired compound was then dissolved as 50 mg/ml in ethanol/tertrahydrofuran/water in a ratio of 65/25/1-20. The water content will vary according to the solubility of the desired compound in this solvent system.
After incubation, all stents, coils, and films were dried overnight at 40° C. at reduced pressure. To evaluate the ability of a charged lipid soluble drug to facilitate uptake and release of a water soluble compound, thin films containing 20 mg of polyurethane with or without 1 mg of sphingosine were produced by pour plating and drying overnight at 40° C. under reduced pressure. The films were then incubated in a solution of fluorescein disodium, a water soluble dye. After incubation, films were dried as described above.
After a 15 minute preincubation (wash step), stents, coils, or films were incubated for 2-3 days in 2 ml. of phosphate buffered saline (pH=7.4) or 5% bovine serum albumin in PBS at 37° C. in a shaking water bath. […] At the end of incubations, the polyurethane was dissolved in tertrahydrofuran and an aliquot analyzed to determine the quantity of compound remaining in the polymer. […] Solutions containing fluorescein dilaurate required addition of 200 μl of 10M sodium hydroxide to convert the fluorescein dilaurate into its colored form (release the two 16-carbon fatty acid dilaurate chains from the water soluble fluorescein molecule). Forskolin content was determined by scintillation counting.

[5] = system: carotid artery; assay: Carotid artery flow after stent delivery; assay type: in vivo, New Zealand white rabbits; settings: 10.3±4.2 ml/min before
Method: (§1) For these experiments, nitinol stents were coated with Tecoflex™, to a thickness of about 50-100 microns, and then incubated in a solution containing unlabelled and tritiated forskolin with a specific activity of 25 μCi/mg. Resulting stents contained approximately 1.5 mg. of forskolin in approximately 20 mg of 50-100 micron thick polymer matrix coating.

[6] = parameters: species or system New Zealand white rabbits; settings: rabbit
Method: as §1
(§2) Instantaneous blood release rates were calculated by the following formula using the conservation of mass principle: [formula] where dM=change in mass, dT=change in time, M=mass, Q=flow, C1=upstream concentration, and C2=downstream concentration. Scintillation counts were then adjusted for measured background and efficiency. The amount of forskolin present was calculated by comparison of tissue activity to a 25 uCi/mg standard. For comparison of tissue and blood forskolin concentrations, blood levels were divided by specific gravity of rabbit blood (1.050 g/ml). Statistical analysis to assess differences between the multiple sites of the tissue samples was by one-way analysis of variances (ANOVA). If significant differences were found (p<0.05), pairwise comparisons were then performed using the t-test within ANOVA corrected for multiple comparisons (Bonferoni/Least Significant Difference tests).

[7] = system: carotid artery; parameters: species or system New Zealand white rabbits; settings: rabbit, in vivo
Method: as §1, §2

[8] = system: carotid artery; assay: Rabbit carotid crush injury, low flow thrombosis model; assay type: in vivo, New Zealand white rabbits
Excerpt: To evaluate the thrombogenicity of polyurethane stent coatings, a rabbit carotid crush injury, low flow thrombosis model was developed. Briefly, New Zealand white rabbits (n=14) underwent anesthesia with ketamine and xylazine followed by surgical exposure of the right carotid and left femoral arteries. A 6 french sheath was placed in the left femoral artery and a 2.0 mm transit time flow probe (Transonics) was placed in the distal carotid artery. No anticoagulant was given. Repeated crush injury with a plastic coated clamp was performed at similar force for fifteen times over a one cm. distance usually producing a small decrement in flow rate. After 5 minutes, a bare or polyurethane coated nitinol stent was advanced to straddle the area of injury and balloon expanded. After a 15 minute equilibration period during which a 3.0 mm balloon occluder was placed proximal to the stent, the occluder was inflated to reduce flow to 4 ml/min. (40% of baseline). Continuous pressure monitoring via pressure transducer placed on line in the occluder inflation system was performed to ensure maintenance of consistent occlusion.
Continuous carotid artery flow and mean blood pressure were recorded by strip chart recorder. If the flow remained <0.5 ml/min, for 5 minutes, the artery was considered occluded and experiment terminated. […] After euthanasia, the artery was removed and cut longitudinally with a scalpel. The polyurethane coating was visually inspected for defects. Presence of white or red thrombus was also noted.

[9] = system: thrombosis on the catheter; settings: released from intravascular catheters; cited from earlier work
[10] = system: intimal hyperplasia; settings: polyvinyl alcohol based polymer beads, perivascular tissue, rats; cited from earlier work
[11] = Film + SPH (sphingosine), n = 2, buffer not given
[12] = Film without sphingosine, n = 2, buffer not given

CCOC(=O)/C=C(C)/C=C/C=C(C)/C=C/c1c(C)cc(OC)c(C)c1C [Etretinate]
concentration at 72 h ([1]; vessel wall): 185000 ng/g | concentration at 24 h ([1]; vessel wall media): 250000 ng/g | elution rate from the polymer [2]: decreased elution rate from the polymer | tissue retention [2]: increased tissue retention | uptake by the polymer [2]: increased uptake by the polymer

CCCCCCCCCCCC(=O)Oc1ccc2c(c1)Oc1cc(OC(=O)CCCCCCCCCCC)ccc1C21OC(=O)c2ccccc21 [Fluorescein dilaurate, fluorescein dilaurate]
water solubility [3]: insoluble in water | Release Rate Day 1 ([4]; Coil, 5% BSA, n = 1): 3.4 µg/h | Release Rate Day 2 ([4]; Coil, 5% BSA, n = 1): 2.3 µg/h | Release Rate Day 1 ([4]; Film, 5% BSA, n = 2): 4.6 µg/h | Release Rate Day 2 ([4]; Film, 5% BSA, n = 2): 3.7 µg/h | initial release rate / release rate [4]: required 5% albumin to promote release

O=C1OC2(c3ccc(O)cc3Oc3cc(O)ccc32)c2ccccc21 [Fluorescein disodium, fluorescein disodium]
water solubility [3]: water soluble | Release Rate Day 1 [4, 11]: 16.0 µg/h | Release Rate Day 2 [4, 11]: 4.0 µg/h | Release Rate Day 3 [4, 11]: 2.0 µg/h | Total ([4]; Film + SPH (sphingosine), n = 2): 1.1 mg | Release Rate Day 1 [4, 12]: 4.0 µg/h | Release Rate Day 2 [4, 12]: 1.8 µg/h | Release Rate Day 3 [4, 12]: 1.8 µg/h | Total ([4]; Film without sphingosine, n = 2): 0.3 mg | total content and delivery rate ([4]; with the addition of sphingosine (SPH) to the matrix): improved total content; also recorded: subsequently higher delivery rate

C=C[C@@]1(C)CC(=O)[C@]2(O)[C@@]3(C)[C@@H](O)CCC(C)(C)[C@@H]3[C@H](O)[C@H](OC(C)=O)[C@@]2(C)O1 [Forskolin]
water solubility [3]: less soluble in aqueous solutions | Release Rate Day 1 ([4]; Stents, PBS, n = 3): 3.8 µg/h | Release Rate Day 2 ([4]; Stents, PBS, n = 3): 3.9 µg/h | Release Rate Day 3 ([4]; Stents, PBS, n = 3): 1.6 µg/h | Total ([4]; Stents, PBS, n = 3): 4.4 mg | in vitro release rate ([4]; in vitro, compared with in vivo): 0.5 µg/min | initial release rate / release rate [4]: slower release rate | carotid artery flow at 1 min ([5]; 1 min after stent delivery, p<0.005): 15.9 ± 2.6 mL/min | carotid artery flow at 60 min ([5]; 60 min after stent delivery, p<0.0001): 19.6 ± 4.4 mL/min | in vivo release rate [6]: 7.0 µg/min | calculated instantaneous release rate into the bloodstream, initial ([6]; in vivo): 6900 ng/min | calculated instantaneous release rate into the bloodstream, over four hours ([6]; in vivo): 700 ng/min | peak forskolin blood level ([6]; in vivo): 140 ng/mL | immediate forskolin blood level ([6]; in vivo, 0 min): 57 ng/mL | blood level ([6]; in vivo, 24 h): 68 ± 18 ng/mL | concentration in adventitia overlying the stent relative to blood [7]: 360 times | concentration in adventitia overlying the stent relative to contralateral artery [7]: 305 times | concentration in media overlying the stent relative to blood [7]: 450 times | concentration in media overlying the stent relative to contralateral artery [7]: 385 times | forskolin levels in vessel proximal to, overlying and distal to stent [7]: significant levels of forskolin | radial and longitudinal diffusion [7]: diffusion gradient in both longitudinal and radial directions away from the stent | washout from the vessel wall [7]: rapid | adventitia level in washout experiment, 2 hours ([7]; 2 h): 1.7 ng/mg | media level in washout experiment, two hours ([7]; 2 h): 1.2 ng FSK/mg tissue | other adjacent tissues level in washout experiment, two hours ([7]; 2 h): < 0.6 ng/mg | adventitia level ([7]; 24 h): 4.1±1.8 ng FSK/mg tissue | adventitia level in washout experiment, 24 hours ([7]; 24 h): 0.1 ng/mg | adventitia tissue to blood ratio ([7]; 24 h): 61±18 | media level ([7]; 24 h): 4.9±1.2 ng/mg tissue | media level in washout experiment, 24 hours ([7]; 24 h): 0.2 ng FSK/mg | media tissue to blood ratio ([7]; 24 h): 77±22 | other adjacent tissues level in washout experiment, 24 hours ([7]; 24 h): < 0.1 ng/mg | thrombosis of the stented segment ([8]; compared to uncoated and coated stents): prevented thrombosis of the stented segment | effect on TCF and TTO ([8]; forskolin impregnated into the polyurethane): remarkably increased the time to cyclic flow (TCF) and time to occlusion (TTO) | Time to Cyclic Flow (TCF) ([8]; n = 5, p < 0.0001 compared to coated and uncoated (uncoated 16 ± 13, polymer coated 27 ± 17)): 208 ± 71 min | Time to Occlusion (TTO) ([8]; n = 5, uncoated 19 ± 18, polymer coated 54 ± 27): > 240 min | stents exhibiting cyclic carotid blood flow ([8]; number of forskolin impregnated stents, n = 5): one | visual inspection of thrombus ([8]; uncoated: mixed red and white thrombus, coated: predominately white thrombus): red thrombus only; also recorded: Absence of platelet rich white thrombus

CCN(CC)c1ccc2c(-c3ccccc3C(=O)O)c3ccc(=[N+](CC)CC)cc-3oc2c1 [Rhodamine B]
Release Rate Day 1 ([4]; Coil, PBS, n = 3): 37.0 µg/h | Release Rate Day 2 ([4]; Coil, PBS, n = 3): 5.2 µg/h | Total ([4]; Coil, PBS, n = 3): 1.5 mg | initial release rate / release rate [4]: highest initial release rate

heparin
thrombosis on the catheter [9]: sufficient to decrease thrombosis on the catheter | intimal hyperplasia [10]: inhibited intimal hyperplasia
